{
  "source": "patent US4719214A",
  "about": "“Carbocyclic analogues of thymine nucleosides” (priority 1985, dated 1988)",
  "key": {"[1]": {"system": "Herpes Simplex Virus Type 2, Strain MS", "test": "Antiviral activity vs. herpes simplex virus type 2 replicating in Vero cells (virus-induced cytopathogenic effects)", "type": "cell-based", "conditions": "for antiviral activity vs. HSV-2 (in words): HSV-2, Table 1 summary; for Virus rating (VR): 0.5-0.9 marginal to moderate, >=1 definite antiviral activity; for EC50: Human alphaherpesvirus 2, Vero, read-out: MIC50 (minimum inhibitory concentration, 50%)", "protocol": "(§1) The MIC50 (minimum inhibitory concentration, 50%) is the concentration of a test compound required for 50% inhibition of virus-induced cytopathogenic effects.\n(§2) ^a Antiviral evaluations were performed with HSV1 or HSV2 replicating"}, "[2]": {"system": "Herpes Simplex Virus Type 1, Strain 377", "test": "Antiviral activity vs. herpes simplex virus type 1 replicating in Vero cells (virus-induced cytopathogenic effects)", "type": "cell-based", "conditions": "for antiviral activity vs. HSV-1 (in words): HSV-1, Table 1 summary; for Virus rating (VR): 0.5-0.9 marginal to moderate, >=1 definite antiviral activity; for EC50: Human alphaherpesvirus 1, Vero, read-out: MIC50 (minimum inhibitory concentration, 50%)", "protocol": "as §1, §2"}, "[3]": {"system": "thymidine phosphorylase", "conditions": "isolated from human blood platelets; cited from earlier work"}, "[4]": {"conditions": "rats; cited from earlier work"}, "[5]": {"conditions": "HSV-2 strain MS, Vero cells, 50% inhibition of virus-induced cytopathogenic effects"}, "[6]": {"conditions": "HSV-1 strain 377, Vero cells, 50% inhibition of virus-induced cytopathogenic effects"}, "[7]": {"conditions": "listed as carbocyclic analogue of 5-ethynyl-2'-deoxyuridine"}},
  "note": "Where “and” joins values, the source holds several entries; their conditions need not be identical. Identical values can stand only once. Entries after “also recorded” stand apart in the source; their conditions may differ. Like-named read-outs stand apart in the source and are kept apart here.",
  "data": [
    {"molecule": "CCc1cn([C@@H]2C[C@H](CO)[C@@H](O)C2)c(=O)[nH]c1=O", "note": "(relative stereo) [C-EDU, 5-Ethyl-1-[(1α,3β,4α)-3-Hydroxy-4-(hydroxymethyl)cyclopentyl]-2,4(1H,3H)-pyrimidinedione]", "values": [
      {"measurement": "antiviral activity vs. HSV-2 (in words)", "setting": "[1]", "result": "comparable to those of 9-β-D-arabinofuranosyladenine (Ara-A); also recorded: definite and significant activity against HSV-2; also recorded: inhibits the replication"},
      {"measurement": "Virus rating (VR)", "setting": "[1]; HSV-2 strain MS, Vero cells", "result": 1.1},
      {"measurement": "MIC50 (minimum inhibitory concentration, 50%)", "setting": "[1]; [5]", "result": 178, "unit": "µg/mL"},
      {"measurement": "EC50", "setting": "[1]; [5]", "result": 227, "unit": "µg/mL"},
      {"measurement": "antiviral activity vs. HSV-1 (in words)", "setting": "[2]", "result": "comparable to those of 9-β-D-arabinofuranosyladenine (Ara-A); also recorded: as active vs. HSV-1 as is the corresponding true nucleoside, 5-ethyl-2'-deoxyuridine (EDU); also recorded: inhibits the replication"},
      {"measurement": "Virus rating (VR)", "setting": "[2]; HSV-1 strain 377, Vero cells", "result": "2.4 and 2.1"},
      {"measurement": "MIC50 (minimum inhibitory concentration, 50%)", "setting": "[2]; [6]", "result": 69, "unit": "µg/mL"},
      {"measurement": "EC50", "setting": "[2]; [6]", "result": 45, "unit": "µg/mL"}
    ]},
    {"molecule": "C#Cc1cn([C@@H]2C[C@H](CO)[C@@H](O)C2)c(=O)[nH]c1=O", "note": "(relative stereo) [Example 4, 1-[(1α,3β,4α)-3-Hydroxy-4-(hydroxymethyl)cyclopentyl]-5-ethynyl-2,4(1H,3H)-pyrimidinedione]", "values": [
      {"measurement": "antiviral activity vs. HSV-2 (in words)", "setting": "[1]", "result": "significant antiviral activity"},
      {"measurement": "antiviral activity vs. HSV-2 (in words)", "setting": "[1]; [7]", "result": "significant, selective activity"},
      {"measurement": "Virus rating (VR)", "setting": "[1]; HSV-2 strain MS, Vero cells", "result": 1.1},
      {"measurement": "EC50", "setting": "[1]; [5]", "result": 207, "unit": "µg/mL"},
      {"measurement": "antiviral activity vs. HSV-1 (in words)", "setting": "[2]", "result": "significant antiviral activity"},
      {"measurement": "antiviral activity vs. HSV-1 (in words)", "setting": "[2]; [7]", "result": "significant, selective activity"},
      {"measurement": "Virus rating (VR)", "setting": "[2]; HSV-1 strain 377, Vero cells", "result": 0.9},
      {"measurement": "EC50", "setting": "[2]; [6]", "result": 253, "unit": "µg/mL"}
    ]},
    {"molecule": "C[Si](C)(C)CCc1cn([C@@H]2C[C@H](CO)[C@@H](O)C2)c(=O)[nH]c1=O", "note": "(relative stereo) [Example 7, 1-[(1α,3β,4α)-3-Hydroxy-4-(hydroxymethyl)cyclopentyl]-5-[2-(trimethylsilyl)ethyl]-2,4(1H,3H)-pyrimidinedione]", "values": [
      {"measurement": "antiviral activity vs. HSV-1 (in words)", "setting": "[2]", "result": "antiviral activity"},
      {"measurement": "antiviral activity vs. HSV-1 (in words)", "setting": "[2]; listed as carbocyclic analogue of 5-trimethylsilylethyl-2'-deoxyuridine", "result": "activity against HSV-1"},
      {"measurement": "Virus rating (VR)", "setting": "[2]; HSV-1 strain 377, Vero cells", "result": 0.5},
      {"measurement": "EC50", "setting": "[2]", "result": 320, "unit": "µg/mL"}
    ]},
    {"molecule": "Nc1ncnc2c1ncn2[C@@H]1O[C@H](CO)[C@@H](O)[C@@H]1O", "note": "[Ara-A, 9-β-D-arabinofuranosyladenine, reference compound]", "values": [
      {"measurement": "Virus rating (VR)", "setting": "[1]; HSV-2 strain MS, Vero cells", "result": "1.3-1.7"},
      {"measurement": "EC50", "setting": "[1]", "result": "22 to 45", "unit": "µg/mL"},
      {"measurement": "Virus rating (VR)", "setting": "[2]; HSV-1 strain 377, Vero cells", "result": "2.0-2.1"},
      {"measurement": "EC50", "setting": "[2]", "result": "15 to 19", "unit": "µg/mL"}
    ]},
    {"molecule": "O=c1[nH]c(=O)n([C@H]2C[C@H](O)[C@@H](CO)O2)cc1/C=C/Br", "note": "[BVDU, 5-[(E)-2-(bromovinyl)]-2'-deoxyuridine]", "values": [
      {"measurement": "substrate for thymidine phosphorylase", "setting": "[3]", "result": "substrates for thymidine phosphorylase"}
    ]},
    {"molecule": "CCc1cn([C@H]2C[C@H](O)[C@@H](CO)O2)c(=O)[nH]c1=O", "note": "[EDU, 5-ethyl-2'-deoxyuridine, reference compound]", "values": [
      {"measurement": "Virus rating (VR)", "setting": "[1]; HSV-2 strain MS, Vero cells", "result": 2.2},
      {"measurement": "EC50", "setting": "[1]", "result": 321, "unit": "µg/mL"},
      {"measurement": "substrate for thymidine phosphorylase", "setting": "[3]", "result": "substrates for thymidine phosphorylase"},
      {"measurement": "Virus rating (VR)", "setting": "[2]; HSV-1 strain 377, Vero cells", "result": 2.3},
      {"measurement": "EC50", "setting": "[2]", "result": 19, "unit": "µg/mL"},
      {"measurement": "cleavage products identified as metabolites", "setting": "[4]", "result": "5-ethyluracil and 5-(2-hydroxyethyl)uracil"}
    ]}
  ]
}
